Assay results reported in paper PMC5387044, “Analogs of the Frog-skin Antimicrobial Peptide Temporin 1Tb Exhibit a Wider Spectrum of Activity and a Stronger Antibiofilm Potential as Compared to the Parental Peptide” (Frontiers in Chemistry, 2017).
Marks after values point to notes of the source that are not given here. No end group written: not given here.

Experiments:
S. aureus ATCC 33591 [1] = format: cell-based, Staphylococcus aureus; settings: pH 7.4
P. aeruginosa ATCC 27853 [2] = format: cell-based, Pseudomonas aeruginosa; settings: pH 7.4
[3] = tested on: S. aureus ATCC 33591 biofilm formation; format: cell-based, Staphylococcus aureus
[4] = tested on: preformed biofilms of S. aureus ATCC 33591; experiment: Biofilm treatment assay on preformed (24-h old) biofilms, CFU counting, alone and with EDTA; format: cell-based, Staphylococcus aureus; settings: 30 μM peptide alone
Protocol: The activity of TB, TB_L1FK, and TB_KKG6A against preformed (24-h old) biofilms of S. aureus and P. aeruginosa was also investigated. Briefly, biofilms were allowed to form for 24 h in flat-bottom 96-well microplates in the absence of antimicrobial compounds. Established biofilms were then washed three times with PBS in order to remove non-adherent cells and incubated in fresh BPM with different concentrations of the three peptides (from 15 to 120 μM). After 24 h of incubation, the viability of biofilm-associated cells was evaluated by CFU counting. For this purpose, biofilms were washed three times with PBS and bacterial cells were detached from the surface of the wells with a pipette tip, vigorously vortexed and plated in serial dilutions on TSA.
TB_L1FK and TB_KKG6A were combined with EDTA in order to enhance their activity against preformed biofilms of S. aureus and P. aeruginosa. […] Following incubation, the antibiofilm effect was evaluated in terms of number of biofilm-associated viable cells as previously described.
Figure 4 Activity of TB_L1FK and TB_KKG6A, used alone and in combination with EDTA, against preformed (24-h old) biofilms of S. aureus ATCC 33591 (A,B) and P. aeruginosa ATCC 27853 (C,D). The antibiofilm activity of the peptides, EDTA and the peptide-EDTA combinations was evaluated by CFU counting after 24 h of incubation. […]

[5] = tested on: preformed biofilms of P. aeruginosa ATCC 27853; experiment: as above; format: cell-based, Pseudomonas aeruginosa; settings: 30 μM peptide + 2.5 mM EDTA
S. aureus ATCC 33591 [6] = settings: ATCC 33591, 24 h, pH 7.4
[7] = tested on: S. epidermidis ATCC 35984; settings: ATCC 35984, 24 h, pH 7.4
[8] = tested on: K. pneumoniae ATCC BAA-1706; settings: ATCC BAA-1706, 24 h, pH 7.4
P. aeruginosa ATCC 27853 [9] = settings: ATCC 27853, 24 h, pH 7.4
[10] = tested on: P. aeruginosa ATCC 27853 biofilm formation
S. aureus ATCC 33591 [11] = settings: for MIC: ATCC 33591, 24 h
P. aeruginosa ATCC 27853 [12] = settings: for FIC index / MIC: ATCC 27853, 24 h
[13] = tested on: human peripheral blood mononuclear cells (PBMCs); settings: 24 h
[14] = tested on: human non-small-cell lung adenocarcinoma A549 cells; settings: 24 h

Substance | Time to bactericidal effect (reduction of at least 3 Log10 in viable bacteria) (S. aureus ATCC 33591 [1]) [min] | Time to complete eradication of the starting bacterial inoculum (P. aeruginosa ATCC 27853 [2]) [min] | Reduction of biofilm formation vs untreated control [3] | Decrease in the number of biofilm-associated viable cells vs untreated biofilms [4] | Reduction in CFU number of peptide-EDTA combination compared to the peptide used alone [5] | MBC (S. aureus ATCC 33591 [6]) [µM] | MBC [7] [µM] | MBC [8] [µM] | MBC (P. aeruginosa ATCC 27853 [9]) [µM] | Inhibitory activity on forming biofilms [10] | FIC index (S. aureus ATCC 33591 [11]) | MIC (S. aureus ATCC 33591 [11]) [µM] | Concentration of the peptide resulting in a synergistic effect (P. aeruginosa ATCC 27853 [12]) | FIC index (P. aeruginosa ATCC 27853 [12]) | MIC (P. aeruginosa ATCC 27853 [12]) [µM] | IC50 [13] [µM] | IC50 [14] [µM] | Time to bactericidal effect (P. aeruginosa ATCC 27853 [2]) [min] | Inhibition of biofilm biomass ([10]; ATCC 27853, 24 h, 24 μM) [%]
FLPIVGLLKSLLK-NH2 [TB_L1FK] | ≤ 30 | ≤ 5 | more than 50% | approximately 2 Log10 | approximately 1 Log10 | 6 | 1.5 | 6 | 6 | no inhibitory activity | > 0.5 | 15 | 0.25 (15 μM)^b | 0.25 (15 μM)^b | 120 | 52 | 59 |  | 
KKLLPIVANLLKSLL-NH2 [TB_KKG6A] | ≤ 60 |  | more than 50% | approximately 2 Log10 | approximately 1 Log10 | 1.5 | 1.5 | 3 | 3 |  | > 0.5 | 7.5 | 0.25 (3.75 μM) | 0.25 (3.75 μM) | 30 | 49 | 16 | 15 | 80
